This assay is described as follows: Jurkat reporter gene cellular assay. It is filed as cell-based. To be noted: Homo sapiens; Jurkat/NF-κB-luc/PD1 + Raji-PD-L1 coculture, OKT3 1 μg/mL, 6 hrs, activation fold; read-out: Cell Activity EC50. The protocol:
The effect of compounds of the examples of the present invention and positive compounds on the interaction between PD-1 and PD-L1 expressed on cell surfaces, and the related influence on T cell functions, were determined by a Jurkat reporter gene cellular assay.
Briefly, the reporter gene plasmid of NF-κB-luc and the plasmid of human PD-1 were transfected into Jurkat cells to establish a stably transfected cell line capable of stably expressing both PD-1 and NF-κB-Luc reporter genes; the expression level of PD-1 on the cell surface was confirmed by flow cytometry; and the expression of the reporter gene was confirmed via the response of the reporter gene stimulated by OKT-3 and Raiji cells.
In addition, the plasmid of human PD-L1 was transfected into Raji cells to obtain a cell line capable of stably expressing PD-L1. Jurkat/NF-κB-luc/PD1 cells and Raji-PD-L1 cells were then cocultured and stimulated with OKT-3. On this basis, the compounds were added, and the enhancement of the signal pathway of T cell activation by the inhibitory effect of the compounds on the interaction between PD-1 and PD-L1 was evaluated by readings of reporter gene responses. The specific experimental process was as follows: • 1. 30 μL of compound or antibody solution was added to each well of a white 96-well plate (corning, 3610) at different diluted concentrations, and 10 μL of OKT3 (Biolegend, 317326) was then added (the final concentration of OKT3: 1 μg/mL); • 2. 20 μL of Raji-PD-L1 cell suspension was added to each well with 5*10^4 cells for each well, and was incubated in an incubator for 20 min; • 3. 20 μL of Jurkat/NF-Kb-luc/PD-1 cell suspension was added to each well with 5*10^4 cells for each well, and well mixed, and 6 hrs later, Bright-glo (Promega, E2620) was applied and plates were read on Envision; • 4. The reading of each well treated with the compound was compared with the reading of each well treated with DMSO to obtain the activation fold of the compound; • 5. EC50 values of compounds and positive compounds of the examples of the present invention were determined by non-linear regression analysis of activation folds at different compound concentrations.
With `Cc1c(/C=C(\F)c2nc3c(n2C)CCNC3)cccc1-c1cccc(NC(=O)c2nc3c(n2C)CCN(CCC24CCC(C(=O)O)(CC2)C4)C3)c1C` [Example 2, (Z)-4-(2-(2-((3′-(2-fluoro-2-(1-methyl-4,5,6,7-tetrahydro-1H-imidazo [4,5-c]pyridin-2-yl)vinyl)-2,2′-dimethyl-[1,1′-biphenyl]-3-yl)carbamoyl)-1-methyl-1,4,6,7-tetrahydro-5H-imidazo[4,5-c]pyridin-5-yl)ethyl)bicyclo[2.2.1]heptane-1-carboxylic acid], the EC50 came to 244 nM.

For the compound `Cc1c(/C=C(\F)c2nc3c(n2C)CCN(C[C@@H](C)O)C3)cccc1-c1cccc(NC(=O)c2nc3c(n2C)CCN(CCC24CCC(C(=O)O)(CC2)C4)C3)c1C` [Example 3, (R,Z)-4-(2-(2-((3′-(2-fluoro-2-(5-(2-hydroxypropyl)-1-methyl-4,5,6,7-tetrahydro-1H-imidazo[4,5-c]pyridin-2-yl)vinyl)-2,2′-dimethyl-[1,1′-biphenyl]-3-yl)carbamoyl)-1-methyl-1,4,6,7-tetrahydro-5H-imidazo[4,5-c]pyridin-5-yl)ethyl)bicyclo[2.2.1]heptane-1-carboxylic acid], the half-maximal effective concentration (EC50) was 95.2 nM.

Turning to `Cc1c(/C=C(\F)c2nc3c(n2C)CCN(C(C)C)C3)cccc1-c1cccc(NC(=O)c2nc3c(n2C)CCN(CCC24CCC(C(=O)O)(CC2)C4)C3)c1Cl` [Example 4, (Z)-4-(2-(2-((2-chloro-3′-(2-fluoro-2-(5-isopropyl-1-methyl-4,5,6,7-tetrahydro-1H-imidazo[4,5-c]pyridin-2-yl)vinyl)-2′-methyl-[1,1′-biphenyl]-3-yl)carbamoyl)-1-methyl-1,4,6,7-tetrahydro-5H-imidazo [4,5-c]pyridin-5-yl)ethyl)bicyclo[2.2.1]heptane-1-carboxylic acid], the EC50 worked out at 289 nM.

Regarding `Cc1c(/C=C(\F)c2nc3c(n2C)CCN(CCC24CCC(C(=O)O)(CC2)C4)C3)cccc1-c1cccc(NC(=O)c2nc3c(n2C)CCN(C(C)C)C3)c1C` [Example 5, (Z)-4-(2-(2-(1-fluoro-2-(3′-(5-isopropyl-1-methyl-4,5,6,7-tetrahydro-1H-imidazo[4,5-c]pyridine-2-carboxamido)-2,2′-dimethyl-[1,1′-biphenyl]-3-yl)vinyl)-1-methyl-1,4,6,7-tetrahydro-5H-imidazo[4,5-c]pyridin-5-yl)ethyl)bicyclo[2.2.1]heptane-1-carboxylic acid], the EC50 is 719 nM.

As for `Cc1c(/C=C(\F)c2nc3c(n2C)CCN(C(C)C)C3)cccc1-c1cccc(NC(=O)c2nc3c(n2C)CCN(CC24CCC(C(=O)O)(CC2)C4)C3)c1C` [Example 6, (Z)-4-((2-((3′-(2-fluoro-2-(5-isopropyl-1-methyl-4,5,6,7-tetrahydro-1H-imidazo[4,5-c]pyridin-2-yl)vinyl)-2,2′-dimethyl-[1,1′-biphenyl]-3-yl)carbamoyl)-1-methyl-1,4,6,7-tetrahydro-5H-imidazo[4,5-c]pyridin-5-yl)methyl)bicyclo[2.2.1]heptane-1-carboxylic acid], the EC50 worked out at 973 nM.

Take `Cc1c(/C=C(\F)c2cc(C3CC3)c(CN3CCCC[C@H]3C(=O)O)cn2)cccc1-c1cccc(NC(=O)c2nc3c(n2C)CCN(C(C)C)C3)c1C` [Example 18, (S,Z)-1-((4-cyclopropyl-6-(1-fluoro-2-(3′-(5-isopropyl-1-methyl-4,5,6,7-tetrahydro-1H-imidazo[4,5-c]pyridine-2-carboxamido)-2,2′-dimethyl-[1,1′-biphenyl]-3-yl)vinyl)pyridin-3-yl)methyl)piperidine-2-carboxylic acid]: the half-maximal effective concentration (EC50) turned out to be 249 nM.

`Cc1c(/C=C(\F)c2cc(C3CC3)c(CN3CCCC[C@H]3C(=O)O)cn2)cccc1-c1cccc(NC(=O)c2nc3c(n2C)CCN(C[C@@H](C)O)C3)c1C` [Example 19, (S)-1-((4-cyclopropyl-6-((Z)-1-fluoro-2-(3′-(5-((R)-2-hydroxypropyl)-1-methyl-4,5,6,7-tetrahydro-1H-imidazo[4,5-c]pyridine-2-carboxamido)-2,2′-dimethyl-[1,1′-biphenyl]-3-yl)vinyl)pyridin-3-yl)methyl)]: the EC50 was determined as 192 nM.

In the case of `COc1cc(/C(F)=C/c2cccc(-c3cccc(NC(=O)c4nc5c(n4C)CCN(CCC46CCC(C(=O)O)(CC4)C6)C5)c3Cl)c2Cl)ncc1CN1CC(O)C1` [Example 42, (Z)-4-(2-(2-((2,2′-dichloro-3′-(2-fluoro-2-(5-((3-hydroxyazetidin-1-yl)methyl)-4-methoxypyridin-2-yl)vinyl)-[1,1′-biphenyl]-3-yl)carbamoyl)-1-methyl-1,4,6,7-tetrahydro-5H-imidazo[4,5-c]pyridin-5-yl)ethyl)bicyclo[2.2.1]heptane-1-carboxylic acid], the EC50 came out at 118 nM.

For the compound `COc1cc(/C(F)=C/c2cccc(-c3cccc(NC(=O)c4nc5c(n4C)CCN(CCC46CCC(C(=O)O)(CC4)C6)C5)c3Cl)c2Cl)ncc1CNCCCO` [Example 43, (Z)-4-(2-(2-((2,2′-dichloro-3′-(2-fluoro-2-(5-(((3-hydroxypropyl)amino)methyl)-4-methoxypyridin-2-yl)vinyl)-[1,1′-biphenyl]-3-yl)carbamoyl)-1-methyl-1,4,6,7-tetrahydro-5H-imidazo[4,5-c]pyridin-5-yl)ethyl)bicyclo[2.2.1]heptane-1-carboxylic acid], the EC50 amounted to 137 nM.

For `COc1cc(/C(F)=C/c2cccc(-c3cccc(NC(=O)c4nc5c(n4C)CCN(CCC46CCC(C(=O)O)(CC4)C6)C5)c3Cl)c2Cl)ncc1CN[C@@H](C)CO` [Example 44, (S,Z)-4-(2-(2-((2,2′-dichloro-3′-(2-fluoro-2-(5-(((1-hydroxypropan-2-yl)amino)methyl)-4-methoxypyridin-2-yl)vinyl)-[1,1′-biphenyl]-3-yl)carbamoyl)-1-methyl-1,4,6,7-tetrahydro-5H-imidazo[4,5-c]pyridin-5-yl)ethyl)bicyclo[2.2.1]heptane-1-carboxylic acid], the EC50 worked out at 105 nM.

Take `COc1cc(/C(F)=C/c2cccc(-c3cccc(NC(=O)c4nc5c(n4C)CCN(CCC46CCC(C(=O)O)(CC4)C6)C5)c3Cl)c2Cl)ncc1CN[C@H]1C[C@@H](O)C1` [Example 45, 4-(2-(2-((2,2′-dichloro-3′-((Z)-2-fluoro-2-(5-((((1S,3S)-3-hydroxycyclobutyl)amino)methyl)-4-methoxypyridin-2-yl)vinyl)-[1,1′-biphenyl]-3-yl)carbamoyl)-1-methyl-1,4,6,7-tetrahydro-5H-imidazo[4,5-c]pyridin-5-yl)ethyl)bicyclo[2.2.1]heptane-1-carboxylic acid]: the EC50 was found to be 114 nM.

`COc1cc(/C(F)=C/c2cccc(-c3cccc(NC(=O)c4nc5c(n4C)CCN(CCC46CCC(C(=O)O)(CC4)C6)C5)c3Cl)c2Cl)ncc1CNCC(C)(C)O` [Example 46, (Z)-4-(2-(2-((2,2′-dichloro-3′-(2-fluoro-2-(5-(((2-hydroxy-2-methylpropyl)amino)methyl)-4-methoxypyridin-2-yl)vinyl)-[1,1′-biphenyl]-3-yl)carbamoyl)-1-methyl-1,4,6,7-tetrahydro-5H-imidazo[4,5-c]pyridin-5-yl)ethyl)bicyclo[2.2.1]heptane-1-carboxylic acid]: the EC50 was determined as 152 nM.

For the compound `COc1cc(/C(F)=C/c2cccc(-c3cccc(NC(=O)c4nc5c(n4C)CCN(CCC46CCC(C(=O)O)(CC4)C6)C5)c3Cl)c2Cl)ncc1CNC1CC1` [Example 47, (Z)-4-(2-(2-((2,2′-dichloro-3′-(2-(5-((cyclopropylamino)methyl)-4-methoxypyridin-2-yl)-2-fluorovinyl)-[1,1′-biphenyl]-3-yl)carbamoyl)-1-methyl-1,4,6,7-tetrahydro-5H-imidazo[4,5-c]pyridin-5-yl)ethyl) bicyclo[2.2. l]heptane-1-carboxylic acid], the EC50 worked out at 147 nM.

In the case of `COc1cc(/C(F)=C/c2cccc(-c3cccc(NC(=O)c4nc5c(n4C)CCN(CCC46CCC(C(=O)O)(CC4)C6)C5)c3Cl)c2Cl)ncc1CNC1CCC1` [Example 48, (Z)-4-(2-(2-((2,2′-dichloro-3′-(2-(5-((cyclobutylamino)methyl)-4-methoxypyridin-2-yl)-2-fluorovinyl)-[1,1′-biphenyl]-3-yl)carbamoyl)-1-methyl-1,4,6,7-tetrahydro-5H-imidazo[4,5-c]pyridin-5-yl)ethyl) bicyclo[2.2.1]heptane-1-carboxylic acid], the concentration giving a half-maximal response (EC50) is 80.6 nM.

For `COc1cc(/C(F)=C/c2cccc(-c3cccc(NC(=O)c4nc5c(n4C)CCN(CCC46CCC(C(=O)O)(CC4)C6)C5)c3Cl)c2Cl)ncc1CNC1CCCC1` [Example 51, (Z)-4-(2-(2-((2,2′-dichloro-3′-(2-(5-((cyclopentylamino)methyl)-4-methoxypyridin-2-yl)-2-fluorovinyl)-[1,1′-biphenyl]-3-yl)carbamoyl)-1-methyl-1,4,6,7-tetrahydro-5H-imidazo[4,5-c]pyridin-5-yl)ethyl) bicyclor[2.2.1]heptane-1-carboxylic acid], the concentration giving a half-maximal response (EC50) stood at 90.1 nM.

As usually defined, the EC50 is the concentration needed to bring the measured effect to its halfway point.

The values above are taken from patent US12473282B2, “Biphenyl fluorine double bond derivative, preparation method therefor, and pharmaceutical application thereof” (Abbisko Therapeutics Co., Ltd., priority 2020, dated 2025).
